In paper PMC12457078, “Inhibition of soluble epoxide hydrolase in endotoxin induced pig lung injury” (Frontiers in Pharmacology, 2025):
Values joined by “and” are separate entries in the source; they are usually repeats but may differ in a detail not shown here. Identical values can stand only once.

System: sEH
Experiment: oxylipin analysis, epoxide/diol ratios (target engagement)
Format: in vivo, pig
Parameters: 14,15-DiHETE: unit not given beside the values; 12,13-DiHOME / 9,10-DiHODE / 11,12-DiHETrE / 14,15-DiHETrE / 10,11-DiHDPE / 19,20-DiHDPE / 13-HODE / 5-HETE / 11-HETE / 12-HETE / 5-HEPE / 9(10)-EpOME / 12(13)-EpOME / EKODE / 11(12)-EpETE: unit not given here
Conditions: for 9,10,13-TriHOME / 9,12,13-TriHOME: bad chromatography; for 14,15-DiHETE: high blanks
Experimental: All animals were monitored with pulse oximetry, heart rate, ECG, systemic arterial blood pressure (ABP), pulmonary arterial pressure (PAP), central venous pressure (CVP) temperature, tidal volumes, respiratory rate and end tidal carbon dioxide. At baseline, and at 3 h, 6 h and at the end of the experiment, pulmonary capillary wedge pressure (PCWP) was measured together with arterial and venous blood gas analyses, as well as cardiac output calculations. Routine chemistry, including creatinine, bilirubin, glucose, electrolytes were collected at baseline and at the end of the experiment (Vetscan VS2®, Abaxis, Griesheim, Germany). Blood samples for measurement of AEPU plasma concentrations, as well as oxylipins (i.e., EpETrEs and their DiHETrE corresponding diols as well as related compounds with other polyunsaturated fatty acid precursors), were collected at baseline, 6 h and at the end of the experiment.
This meant nine subjects in each group to achieve 90% power of detecting a difference of this size given α = 0.05. Anticipating that not all experiments would reach completion, we used a sample size of 22. The results were analyzed using SPSS Statistics, version 24 (IBM Corp., Armonk, N.Y., United States). Normality was examined with the Shapiro-Wilk test, together with examination of histograms of data. Continuous variables were compared using Student’s t-test or Mann Whitney U test, as appropriate. Categorical variables were compared using Fischer’s exact test. Statistical significance was set at α < 0.05. Oxylipins with at least 80% of observations above limit of detection at both timepoints were included in pairwise comparisons of ratios and fold-change evaluations where observations below limit of detection (LOD) were substituted with 0.5 x LOD.

## CCOCCOCCOCCCCCNC(=O)NC12CC3CC(CC(C3)C1)C2 [sEH-i]
Time 0, individual pigs
  13-HOTrE: 1.38 and 2.03 and 0.71 and 0.95 and 0.65
  13-oxo-ODE: <LOD
  14(15)-EpETE: <LOD
  14(15)-EpETrE: <LOD
  14,15-DiHETrE: 0.82 and 0.55 and 0.35 and 0.43 and 0.51
  15(16)-EpODE: 12.33 and 9.22 and 4.38 and 5.90 and 3.04
  15,16-DiHODE: 22.17 and 16.83 and 10.14 and 20.63 and 11.96
  15-HEPE: <LOD
  15-HETE: 0.31 and 0.33 and 0.20 and 0.29 and 0.16
  15-HETrE: 0.19 and 0.21 and 0.13 and 0.18 and 0.10
  15-oxo-ETE: 0.03 and <LOD and 0.043 and 0.0266
  16(17)-EpDPE: <LOD
  16,17-DiHDPE: 0.10 and 0.0746 and 0.0252 and 0.0444 and 0.03
  17(18)-EpETE: <LOD
  17,18-DiHETE: 0.69 and 0.45 and 0.26 and 0.66 and 0.46
  17-HDoHE: <LOD
  19(20)-EpDPE: <LOD
  19,20-DiHDPE: 1.19 and 0.80 and 0.30 and 1.02 and 0.43
  20-HETE: 0.11 and 0.12 and 0.0652 and 0.10 and 0.0444
  EKODE: 0.36 and 0.27 and 0.38 and 0.31 and 0.33
  LTB4: <LOD and 0.17
  PGD2: <LOD
  PGE2: <LOD
  PGF2a: <LOD and 0.0428
  Resolvin D1: <LOD
  Resolvin D2: <LOD
  TXB2: 0.0943 and 0.19 and 0.08601 and 0.18
  9,10,13-TriHOME: 3.66 and 5.50 and 4.37 and 4.76 and 5.61
  9,12,13-TriHOME: <LOD
  14,15-DiHETE: 0.1158 and 0.09583 and 0.02876 and 0.02655 and 0.09648
Time 6, individual pigs
  5(6)-EpETrE: <LOD
  5,6-DiHETrE: <LOD
  5-HEPE: 0.06 and 0.18 and <LOD and 0.07 and 0.05
  5-HETE: 0.3567 and 0.58 and 0.2089 and 0.4225 and 0.4419
  5-oxo-ETE: 0.11 and 0.18 and <LOD and 0.14 and 0.15
  7(8)-EpDPE: <LOD
  7,8-DiHDPE: <LOD
  8(9)-EpETE: <LOD
  8(9)-EpETrE: <LOD
  8,9-DiHETE: <LOD
  8,9-DiHETrE: 0.10 and 0.07 and <LOD and 0.0449
  8-HETE: 0.07 and 0.09 and 0.04 and 0.12 and 0.0759
  9(10)-EpODE: 0.63 and 0.49 and 0.36 and 0.35 and 0.42
  9(10)-EpOME: 1.87 and 1.33 and 0.60 and 1.51 and 2.48
  9,10-DiHODE: 0.64 and 1.20 and 1.17 and 0.73 and 0.69
  9,10-DiHOME: 5.75 and 8.57 and 9.02 and 5.97
  9-HETE: <LOD
  9-HODE: 13.28 and 24.06 and 22.88 and 16.64 and 15.68
  9-HOTrE: 1.36 and 2.59 and 1.91 and 1.50 and 0.95
  9-oxo-ODE: <LOD
  10(11)-EpDPE: <LOD
  10,11-DiHDPE: 0.07 and 0.03 and 0.0327 and 0.02 and 0.0362
  11(12)-EpETE: 0.1179 and 0.09737 and 0.1269 and 0.06515 and 0.0705
  11(12)-EpETrE: 0.05 and 0.0441 and 0.0274 and 0.0271
  11,12-DiHETE: 0.0351 and 0.0319 and 0.0666 and 0.03 and 0.05
  11,12-DiHETrE: 0.86 and 0.62 and 1.36 and 0.66 and 0.92
  11-HETE: 0.42 and 0.30 and 0.66 and 0.25 and 0.40
  12(13)-EpODE: 1.12 and 0.79 and 0.95 and 0.91
  12(13)-EpOME: 5.25 and 4.08 and 1.60 and 5.63 and 7.56
  12,13-DiHODE: 1.01 and 1.89 and 1.53 and 1.48 and 1.36
  12,13-DiHOME: 16.00 and 24.72 and 21.84 and 22.49 and 19.00
  12-HEPE: 0.08 and 0.11 and 0.06 and 0.0632 and 0.04
  12-HETE: 1.11 and 0.86 and 0.59 and 0.65 and 0.46
  12-oxo-ETE: <LOD
  13(14)-EpDPE: <LOD
  13,14-DiHDPE: 0.15 and 0.10 and 0.13 and 0.06
  13-HODE: 42.16 and 101.75 and 49.69 and 56.11 and 42.57
  13-HOTrE: 1.94 and 6.77 and 3.06 and 2.84 and 1.84
  13-oxo-ODE: <LOD and 5.47
  14(15)-EpETE: <LOD
  14(15)-EpETrE: <LOD and 0.0855 and 0.08
  14,15-DiHETrE: 1.69 and 1.48 and 1.65 and 0.72 and 0.63
  15(16)-EpODE: 24.31 and 29.46 and 11.19 and 30.59 and 26.51
  15,16-DiHODE: 54.83 and 45.60 and 30.98 and 42.25 and 33.76
  15-HEPE: <LOD
  15-HETE: 0.63 and 0.86 and 0.43 and 0.48
  15-HETrE: 0.41 and 0.47 and 0.48 and 0.37 and 0.39
  15-oxo-ETE: 0.0346 and <LOD and 0.03 and 0.0128
  16(17)-EpDPE: <LOD
  16,17-DiHDPE: 0.19 and 0.20 and 0.14 and 0.0527 and 0.085
  17(18)-EpETE: <LOD
  17,18-DiHETE: 1.22 and 1.33 and 1.55 and 0.59 and 1.01
  17-HDoHE: <LOD
  19(20)-EpDPE: <LOD
  19,20-DiHDPE: 1.72 and 1.58 and 1.48 and 0.68 and 0.62
  20-HETE: 0.11 and 0.12 and 0.08 and 0.10
  EKODE: 0.88 and 0.74 and 0.47 and 0.87 and 1.05
  LTB4: <LOD and 0.28 and 0.38 and 0.18 and 0.43
  PGD2: <LOD and 0.01 and 0.00656
  PGE2: 0.095 and 0.06 and 0.20 and <LOD and 0.12
  PGF2a: 1.61 and 0.65 and 4.40 and 0.44 and 2.56
  Resolvin D1: <LOD
  Resolvin D2: <LOD
  TXB2: 2.92 and 3.83 and 2.22 and 1.21 and 1.79
  9,10,13-TriHOME: 2.86 and 3.12 and 7.92 and 7.73 and 5.56
  9,12,13-TriHOME: <LOD and 0.24
  14,15-DiHETE: 0.3645 and 0.4177 and 0.09663 and 0.04163 and 0.2578
